Results as given in patent US8822455B2, “Fused aminodihydrothiazine derivatives” (Eisai R&D Management Co., Ltd., priority 2011, dated 2014).

Test system: Aβ42
Test: In vitro cellular assay (Aβ42): quantification of Aβ peptide in culture of neurons from rat fetus brain (ELISA)
Assay type: cell-based
Settings: Primary cortical neuron, 72 h, rat primary cortical neurons (embryonic day 18 Wistar), 3 days after addition of compound, read-out: Cell IC50
Procedure: In vitro Cellular Assay (Aβ42):
Quantification of AβPeptide in Culture of Neurons from Rat Fetus Brain
(1) Rat Primary Neuronal Culture
Primary neuronal cultures were prepared from the cerebral cortex of embryonic day 18 Wistar rats (Charles River, UK). Specifically, the embryos were aseptically removed from pregnant rats under ether anesthesia. The brain was isolated from the embryo and immersed in HBSS (Sigma Aldrich #H9269) containing 10 mM HEPES (Gibco #15630-056). The cerebral cortex was collected from the isolated brain under a stereoscopic microscope. The cerebral cortex fragments collected were enzymatically treated in an enzyme solution containing 0.05% trypsin-EDTA solution (GIBCO, #25300) at 37° C. for 20 minutes to disperse the cells. The cells were then washed twice and then gently resuspended in Neurobasal medium (Gibco #21103) supplemented with 2% B27 supplement (GIBCO #17504-044), 0.5 mM L-glutamine (GIBCO #25030), 1×N2 (GIBCO #17502-048), 100 ug/ml Pen/Strep (GIBCO 15140-122) and 5% heat inactivated FCS (PAA #A15-701). The cell dispersion was filtered through a 40-μm nylon mesh (BD Falcon #352340) to remove the remaining cell mass, and thus a neuronal cell suspension was obtained. The neuronal cell suspension was diluted with the medium above and then plated in a volume of 100 μL/well at an initial cell density of 3.25×10^5 cells/ml in poly-D-lysine coated 96-well culture plate (Greiner #655940). The plated cells were cultured in the culture plate at 37° C. in 5% CO2-95% air for 24 hrs. The total amount of the medium was replaced with ‘assay Neurobasal medium’ (as above excluding heat inactivated FCS), and then the cells were cultured for a further five days.
The drug was added to the culture plate on Day 6 of culture as follows. 8 point compound serial dilutions were generated in DMSO at a concentration of ×1000 that of the final assay concentration (FAC). Compound solutions were then prepared by adding 999 ul of ‘Assay Neurobasal media’ (as described in above section) to 1 ul of DMSO compound stock. The total amount of the medium was removed from each of the cell plate wells, and 200 μL/well of compound solution was added. The final DMSO concentration was 0.1%.
The cells were cultured for either 1 or 3 days after addition of the compound for ABx-40 and ABx-42 assays respectively. 150 μl of sample medium was collected and used as the ELISA sample.
Human/Rat β Amyloid (42) ELISA Kit Wako (#290-62601) and Human/Rat β Amyloid (40) ELISA Kit Wako (#294-62501) from Wako Pure Chemical Industries, Ltd. were used for Aβ ELISA Aβ ELISA was carried out according to the protocols recommended by the manufacturers, described in the documents accompanying the kits. The results were shown as percentage of the control groups and IC50 values for each compound were determined using four parameter logistic fit model using the XLFIT5 software package (IDBS).

SMILES | IC50
C[C@H]1OC[C@]2(c3cc(-c4cncnc4)ccc3F)N=C(N)SC[C@H]12 [Example 1, (4aS,5R,7aS)-7a-(2-Fluoro-5-(pyrimidin-5-yl)phenyl)-5-methyl-4a,5,7,7a-tetrahydro-4H-furo[3,4-d][1,3]thiazin-2-amine] | 65 nM
C[C@H]1OC[C@]2(c3cc(-c4ccccc4)ccc3F)N=C(N)SC[C@H]12 [Example 5, (4aS,5R,7aS)-7a-(4-Fluoro-[1,1′-biphenyl]-3-yl)-5-methyl-4a,5,7,7a-tetrahydro-4H-furo[3,4-d][1,3]thiazin-2-amine] | 450 nM
C[C@H]1OC[C@]2(c3cc(-c4cncc(C#N)c4)ccc3F)N=C(N)SC[C@H]12 [Example 13, 5-(3-((4aS,5R,7aS)-2-Amino-5-methyl-4a,5,7,7a-tetrahydro-4H-furo[3,4-d][1,3]thiazin-7a-yl)-4-fluorophenyl)nicotinonitrile] | 62 nM
Cc1cnc(F)c(-c2ccc(F)c([C@]34CO[C@H](C)[C@H]3CSC(N)=N4)c2)c1 [Example 16, (4aS,5R,7aS)-7a-(2-fluoro-5-(2-fluoro-5-methylpyridin-3-yl)phenyl)-5-methyl-4a,5,7,7a-tetrahydro-4H-furo[3,4-d][1,3]thiazin-2-amine] | 58 nM
C[C@H]1OC[C@]2(c3cc(-c4cnccn4)ccc3F)N=C(N)SC[C@H]12 [Example 22, (4aS,5R,7aS)-7a-(2-fluoro-5-(pyrazin-2-yl)phenyl)-5-methyl-4a,5,7,7a-tetrahydro-4H-furo[3,4-d][1,3]thiazin-2-amine] | 55 nM
NC1=N[C@@]2(c3cc(-c4cncnc4)c(F)cc3F)CO[C@H](CF)[C@H]2CS1 [Example 27, (4aS,5S,7aS)-7a-(2,4-Difluoro-5-(pyrimidin-5-yl)phenyl)-5-(fluoromethyl)-4a,5,7,7a-tetrahydro-4H-furo[3,4-d][1,3]thiazin-2-amine] | 59 nM
C[C@H]1OC[C@]2(c3cc(-c4cncc(OC5CC5)c4)ccc3F)N=C(N)SC[C@H]12 [Example 21, (4aS,5R,7aS)-7a-(5-(5-cyclopropoxypyridin-3-yl)-2-fluorophenyl)-5-methyl-4a,5,7,7a-tetrahydro-4H-furo[3,4-d][1,3]thiazin-2-amine] | 127 nM
C[C@H]1OC[C@]2(c3cc(-c4cncc(OC(F)F)c4)ccc3F)N=C(N)SC[C@H]12 [Example 26] | 64 nM
C[C@H]1OC[C@]2(c3cc(-c4cncc(F)c4)ccc3F)N=C(N)SC[C@H]12 [Example 9, (4aS,5R,7aS)-7a-(2-Fluoro-5-(5-fluoropyridin-3-yl)phenyl)-5-methyl-4a,5,7,7a-tetrahydro-4H-furo[3,4-d][1,3]thiazin-2-amine] | 60 nM
C[C@H]1OC[C@]2(c3cc(-c4cccnc4)ccc3F)N=C(N)SC[C@H]12 [Example 4, (4aS,5R,7aS)-7a-(2-Fluoro-5-(pyridin-3-yl)phenyl)-5-methyl-4a,5,7,7a-tetrahydro-4H-furo[3,4-d][1,3]thiazin-2-amine] | 106 nM
NC1=N[C@@]2(c3cc(-c4ccc(F)nc4)c(F)cc3F)CO[C@H](CF)[C@H]2CS1 [Example 30, (4aS,5S,7aS)-7a-(2,4-difluoro-5-(6-fluoropyridin-3-yl)phenyl)-5-(fluoromethyl)-4a,5,7,7a-tetrahydro-4H-furo[3,4-d][1,3]thiazin-2-amine] | 223 nM
C[C@H]1OC[C@]2(c3cc(-c4ccccc4F)ccc3F)N=C(N)SC[C@H]12 [Example 6, (4aS,5R,7aS)-7a-(2′,4-difluoro-[1,1′-biphenyl]-3-yl)-5-methyl-4a,5,7,7a-tetrahydro-4H-furo[3,4-d][1,3]thiazin-2-amine] | 244 nM
C[C@H]1OC[C@]2(c3cc(-c4cncc(C(F)(F)F)c4)ccc3F)N=C(N)SC[C@H]12 [Example 14, (4aS,5R,7aS)-7a-(2-Fluoro-5-(5-(trifluoromethyl)pyridine-3-yl)phenyl)-5-methyl-4a,5,7,7a-tetrahydro-4H-furo[3,4-d][1,3]thiazin-2-amine] | 136 nM
C[C@H]1OC[C@]2(c3cc(-c4cncnc4)c(F)cc3F)N=C(N)SC[C@H]12 (relative stereo) [Example 31, (4aS*,5R*,7aS*)-7a-(2,4-Difluoro-5-(pyrimidin-5-yl)phenyl)-5-methyl-4a,5,7,7a-tetrahydro-4H-furo[3,4-d][1,3]thiazin-2-amine] | 20 nM
COc1ccc(-c2ccc(F)c([C@]34CO[C@H](C)[C@H]3CSC(N)=N4)c2)cn1 [Example 11, (4aS,5R,7aS)-7a-(2-Fluoro-5-(6-methoxypyridin-3-yl)phenyl)-5-methyl-4a,5,7,7a-tetrahydro-4H-furo[3,4-d][1,3]thiazin-2-amine] | 839 nM
COc1cncc(-c2ccc(F)c([C@]34CO[C@H](C)[C@H]3CSC(N)=N4)c2)c1 [Example 8, (4aS,5R,7aS)-7a-(2-fluoro-5-(5-methoxypyridin-3-yl)phenyl)-5-methyl-4a,5,7,7a-tetrahydro-4H-furo[3,4-d][1,3]thiazin-2-amine] | 23 nM
C[C@H]1OC[C@]2(c3cc(-c4ncc[nH]4)ccc3F)N=C(N)SC[C@H]12 [Example 2, (4aS,5R,7aS)-7a-(2-Fluoro-5-(1H-imidazo-2-yl)phenyl)-5-methyl-4a,5,7,7a-tetrahydro-4H-furo[3,4-d][1,3]thiazin-2-amine] | 749 nM
C[C@H]1OC[C@]2(c3cc(-c4cc(F)ccc4F)ccc3F)N=C(N)SC[C@H]12 [Example 12, (4aS,5R,7aS)-5-Methyl-7a-(2′,4,5′-trifluoro-[1,1′-biphenyl]-3-yl)-4a,5,7,7a-tetrahydro-4H-furo[3,4-d][1,3]thiazin-2-amine] | 114 nM
C[C@H]1OC[C@]2(c3cc(-c4cccnn4)ccc3F)N=C(N)SC[C@H]12 [Example 23, (4aS,5R,7aS)-7a-(2-fluoro-5-(pyridazin-3-yl)phenyl)-5-methyl-4a,5,7,7a-tetrahydro-4H-furo[3,4-d][1,3]thiazin-2-amine] | 572 nM
C[C@H]1OC[C@]2(c3cc(-c4ccnn4C)ccc3F)N=C(N)SC[C@H]12 [Example 20, (4aS,5R,7aS)-7a-(2-fluoro-5-(1-methyl-1H-pyrazol-5-yl)phenyl)-5-methyl-4a,5,7,7a-tetrahydro-4H-furo[3,4-d]thiazin-2-amine] | > 1000 nM
COc1cncc(-c2cc([C@]34CO[C@H](CF)[C@H]3CSC(N)=N4)c(F)cc2F)c1 [Example 29, (4aS,5S,7aS)-7a-(2,4-difluoro-5-(5-methoxypyridin-3-yl)phenyl)-5-(fluoromethyl)-4a,5,7,7a-tetrahydro-4H-furo[3,4-d][1,3]thiazin-2-amine] | 15 nM
NC1=N[C@@]2(c3cc(-c4cccnc4F)c(F)cc3F)CO[C@H](CF)[C@H]2CS1 [Example 28] | 46 nM
C[C@H]1OC[C@]2(c3cc(-c4cccc(=O)[nH]4)ccc3F)N=C(N)SC[C@H]12 [Example 25, 6-(3-((4aS,5R,7aS)-2-amino-5-methyl-4a,5,7,7a-tetrahydro-4H-furo[3,4-d][1,3]thiazin-7a-yl)-4-fluorophenyl)pyridin-2(1H)-one] | 342 nM
CC#Cc1cncc(-c2ccc(F)c([C@]34CO[C@H](C)[C@H]3CSC(N)=N4)c2)c1 [Example 19, (4aS,5R,7aS)-7a-(2-fluoro-5-(5-(prop-1-yn-1-yl)pyridin-3-yl)phenyl)-5-methyl-4a 5,7,7a-tetrahydro-4H-furo[3,4-d][1,3]thiazin-2-amine] | 17 nM
C[C@H]1OC[C@]2(c3cc(-c4ccc(F)nc4)ccc3F)N=C(N)SC[C@H]12 [Example 10, (4aS,5R,7aS)-7a-(2-Fluoro-5-(6-fluoropyridin-3-yl)phenyl)-5-methyl-4a,5,7,7a-tetrahydro-4H-furo[3,4-d][1,3]thiazin-2-amine] | 94 nM
C[C@H]1OC[C@]2(c3cc(-c4cnc(-c5cnccn5)[nH]4)ccc3F)N=C(N)SC[C@H]12 [Example 3, (4aS,5R,7aS)-7a-(2-fluoro-5-(2-(pyrazin-2-yl)-1H-imidazol-5-yl)phenyl)-5-methyl-4a,5,7,7a-tetrahydro-4H-furo[3,4-d][1,3]thiazin-2-amine] | 69 nM
